How the values were obtained:
[1] = MTT cell viability / IC50 in growth media; assay type: cell-based, human; settings: human, HepG2 cells, 10 μM; for viability at 4 day, 10 µM: day 4; for viability at 2 days, 10 µM: treatment for 2 days
Protocol: (§1) The cytotoxic effects of the synthesized drugs on the HepG2 cells were tested by MTT (Thiazolyl Blue Tetrazolium Bromide) method. HepG2 cells were seeded 2×10^4 cells per well in 96-well plate in 200 μL growth media. […] After the incubation period, 5 mg/ml MTT (M2128, Sigma-Aldrich) solution in PBS (10 μL) was added to each well. After 1 hr, the MTT solution and all media were removed from the wells. 100 μl of DMSO was added and mixed to dissolve the formazan crystals. Cell viability was analysed by measuring the absorbance of the dissolved formazan in a microplate reader at a wavelength of 570 nm with microplate reader (Hidex Sense Beta Plus).
(§2) HepG2 cells were maintained and used with RPMI 1640 (R2405, Sigma-Aldrich) supplemented with 10% fetal bovine serum (F7524, Sigma-Aldrich), 1% P/S (P4333, Sigma-Aldrich). 20,000 cells per well of HepG2 cells were seeded into a 96-well plate and triplicated for MTT assay and LDH assay. Cell viability was measured by MTT assay (M6494, ThermoFisher) and cytotoxicity was measured by LDH assay kit (ab65393, abcam) by following manufacturer's instructions. Optical density (O.D) was numerated using a microplate reader (Hidex Sense Meta Plus).

HepG2 cells [2] = test: MTT cell viability / IC50 in growth media; assay type: cell-based, human; settings: 30 μM to 30 nM; for IC50: Homo sapiens, 48 h, HepG2, treatment for 2 days
Protocol: as §1, §2

PARP = test: Western blot, cleaved PARP; assay type: cell-based, human; settings: 10 μM, 2 days
Protocol: (§3) HepG2 cells were seeded into a 6-well plate at 400,000 cells per well. After treatment with 10 μM of JNK-IN-5A and its derivatives for two days, lysates were harvested with CelLytic M (C2978, Sigma-Aldrich). 20 μg lysate was prepared with 2× Laemmli Sample Buffer (1610737, Biorad). SDS PAGE were performed using Mini-PROTEAN® TGX™ Precast Gels (Bio-Rad) and transferred using Trans-Blot® Turbo™ Transfer System (Bio-Rad). Primary antibody, PARP (95425, Cell signalling), Caspase 3 (ab32042, abcam), Bcl-2 (ab182858), STAT1 (HPA000982, Merk), PKL (06653, Sigma), PKM (4053S, Cell signalling), GAPDH (ab8245, abcam), P53 (ab32389, abcam), p21 (ab109199, abcam), p-S349 p62 (ab211324, abcam), p62 (ab109012, abcam), c-Myc (ab32072, abcam), GPX4 (ab125066, abcam), MMP9 (MA5-32705, Invitrogen), β-actin (ab8227, abcam), and α-tubulin (ab7291, abcam) were blotted overnight and Goat Anti-Rabbit HRP (ab205718) and goat anti-mouse IgG-HRP (sc2005, Santa Cruz Biotechnology, Inc.) were blotted for secondary antibody for one hour. ImageQuantTMLAS 500 (29-0050-63, GE) was used to detect protein bands.

Caspase 3 = test: Western blot, active caspase 3; assay type: cell-based, human; settings: 10 μM, 2 days
Protocol: as §3

JNK1/2/3 = test: Western blot, JNK1/2/3 P54 and p46 isoforms; assay type: cell-based, human; settings: 10 μM, 2 days
Protocol: HepG2 cells were seeded into a 6-well plate at 400,000 cells per well. After treatment with 10 μM of JNK-IN-5A and its derivatives for two days, lysates were harvested with CelLytic M (C2978, Sigma-Aldrich). […] SDS PAGE were performed using Mini-PROTEAN® TGX™ Precast Gels (Bio-Rad) and transferred using Trans-Blot® Turbo™ Transfer System (Bio-Rad). […] ImageQuantTMLAS 500 (29-0050-63, GE) was used to detect protein bands.

c-Myc = test: Nuclear protein western blot, c-Myc; assay type: cell-based, human; settings: 10 μM, 2 days
Protocol: as §3

p21 = test: Nuclear protein western blot, p21; assay type: cell-based, human; settings: 10 μM, 2 days
Protocol: as §3

GPX4 = test: Western blot, GPX4; assay type: cell-based, human; settings: compared to the control
Protocol: as §3

HepG2 cells [3] = test: FACs analysis with PI staining (cell cycle); assay type: cell-based, human; settings: for cell cycle distribution / arrest: PI FACS
Protocol: 400,000 HepG2 cells were seeded in a 6-well plated and treated with 10 μM of the compounds for 2 days. Cells were fixed with 70% ethanol and stained with 50 μg/ml PI. Prepared cells were analysed using BD FACS Canto II Flow Cytometry system at PE-A channel 10,000 cells per group. The data was histogram plotted with BD FACSDiva 9.0.

HepG2 cells [4] = test: Mitochondrial membrane potential assay (TMRE); assay type: cell-based, human; settings: 10 μM, one day
Protocol: (§4) HepG2 cells were seeded into a 6-well plate at 400,000 cells per well. After treatment with the compounds at desired concentration and time, TMRE (ab113852, abcam), Autophagy (ab139484, abcam), ROS (ab113851, abcam), and Lipid peroxidation (ab243377, abcam) assay were performed according to manufacturer's instructions. Fluorescence images were taken using ZOE™ Fluorescent Cell Imager (Biorad) and ROI of fluorescence intensity was measured and calculated by Image J. For microplate reader florescence assay, 40,000 of HepG2 cells were seeded into a 96-well plate and triplicated. GFP (Ex480 nm, Em530 nm) and RFP (Ex549 nm, Em574 nm) were measured using a microplate reader (Hidex Sense Meta Plus).

HepG2 cells [5] = test: Autophagy assay; assay type: cell-based, human; settings: 10 μM, one day
Protocol: as §4

HepG2 cells [6] = test: Invasion assay (transwell); assay type: cell-based, human
Protocol: The effects of the treatment with the compounds on the invasion ability of HepG2 and Huh7 cells were determined by 8 μm pores transwell chamber (Corning™ 3464, USA).
(§5) Transwell membrane was coated with 100 μl collagen (Sigma C3867, USA) diluted with PBS to a concentration of 1 mg/ml. After overnight incubation at 4° C., the collagen solution was discarded and the membrane was washed with PBS. 100,000 cells in 200 μl serum free media together with the tested compounds were added into the upper well and 600 μl of 10% FBS supplemented growth media was added to the lower well as an invasive attractant in a 24-well plate. Cells were incubated at 37° C. in a CO2 incubator for one day. The cells were fixed with 3.7% formaldehyde for 30 minutes at room temperature and washed with PBS twice. The cells were stained with 1% crystal violet in PBS for 20 minutes and residual cells in inner membrane were swabbed gently with a cotton swab. Invaded cells located at the outer membrane were imaged by ZOE Fluorescent Cell Imager (Bio-Rad, USA) and counted by image. For wound healing assay, 100,000 cells per well were seeded into 24-well plates and grown until 95-100% confluent. Linear wound was created by using a 200 μl pipette tip. Image was recorded at the time point of day 0 until control group wound closure with 1 μM of compounds by ZOE Fluorescent Cell Imager (Bio-Rad, USA). Wound areas were measured using ImageJ software.

HepG2 cells [7] = test: Wound healing assay; assay type: cell-based; settings: Homo sapiens, HepG2, 96 h, day 4, untreated 100% wound closure, read-out: wound healing delayed by
Protocol: as §5

SMILES	viability at 4 day, 10 µM [1] [%]	viability at 2 days, 10 µM [1] [%]	dose dependence of cell viability (HepG2 cells [2])	IC50 (HepG2 cells [2]) [µM]	increase in cleaved PARP vs untreated control (PARP) [times]	active caspase 3 levels (Caspase 3) [times]	JNK1/2/3 p46 expression (JNK1/2/3) [times]	nuclear c-Myc expression (c-Myc)	p21 nuclear localization (p21)	GPX4 expression levels (GPX4)	cell cycle distribution / arrest (HepG2 cells [3])	Cell population G0/G1 (HepG2 cells [3]; PI FACs, 10 μM, 2 days)	Cell population G2/M (HepG2 cells [3]; PI FACs, 10 μM, 2 days)	Cell population S (HepG2 cells [3]; PI FACs, 10 μM, 2 days)	mitochondrial membrane potential (HepG2 cells [4])	autophagy GFP signals (HepG2 cells [5])	inhibition at 1 µM (HepG2 cells [6]; Homo sapiens, HepG2, 24 hr, read-out: invasiveness reduced by) [%]	inhibition at 1 µM (HepG2 cells [7]) [%]	invasiveness reduced by (HepG2 cells [6]; 1 μM, 24 hr)
CNC(=O)c1cc(Oc2ccc(NC(=O)Nc3ccc(Cl)c(C(F)(F)F)c3)c(F)c2)ccn1 [Regorafenib, regorafenib, reference compound]	13.4	41.1	dose-dependent decrease in cell viability	5.91	16	3.61	0.65	decreased	not	significantly higher	did not alter the cell cycle distribution significantly	70.5	14.9	9.7	decrease	did not induce autophagy	21	44.8	
CNC(=O)c1cc(Oc2ccc(NC(=O)Nc3ccc(Cl)c(C(F)(F)F)c3)cc2)ccn1 [Sorafenib, sorafenib, reference compound]	19.2	51	dose-dependent decrease in cell viability	8.64	10	4.35	0.81	decreased	not	significantly higher	did not alter the cell cycle distribution significantly			10.1	decrease	did not induce autophagy		35	28.7%±2.9

Source: patent US20260234159A1, “SMALL MOLECULE TREATMENT OF FATTY LIVER DISEASE AND HCC” (SCANDIEDGE THERAPEUTICS AB, priority 2023, published 2026)
